ChEMBL document CHEMBL4028815, “Novel phosphonate analogs of sulforaphane: Synthesis, in vitro and in vivo anticancer activity” (Eur J Med Chem, 2017)
Activity calls are given as the source filed them. The calls are words filed in the database; no cut-off is given here.

Columns and labels:
[1] = Cytotoxicity against human LoVo/DX cells assessed as cell death at >15 uM after 24 hrs; type: cell-based
[2] = test system: LoVo; experiment: Potency index, ratio of sulforaphane IC50 to compound IC50 for human LoVo cells; type: functional
[3] = test system: LoVo; experiment: Cytotoxicity against human LoVo cells after 72 hrs by sulforhodamine B assay; type: functional, cell-based
[4] = Cytotoxicity against human LoVo/DX cells after 72 hrs by sulforhodamine B assay; type: functional, cell-based
[5] = test system: LoVo; experiment: Cell cycle arrest in human LoVo cells assessed as decrease in accumulation at G0/G1 phase at 15 uM after 24 hrs by propidium iodide staining based flow cytometric method; type: functional
[6] = Induction of apoptosis in human LoVo/DX cells assessed as loss of mitochondrial membrane potential at 15 uM after 24 hrs by JC-1 staining based flow cytometric method relative to control; type: functional
[7] = test system: LoVo; experiment: Induction of apoptosis in human LoVo cells assessed as increase in early apoptotic cells at 15 uM after 24 hrs by APC-Annexin-V/propidium iodide staining based flow cytometric method relative to control; type: functional
[8] = test system: Mus musculus; experiment: Toxicity in BALB/c mdb mouse implanted with mouse 4T1 cells assessed as body weight loss at 100 umol/kg, ip administered five times weekly measured 3 times weekly during compound dosing; type: organism-based; details: in vivo
[9] = test system: Mus musculus; experiment: Toxicity in BALB/c mdb mouse implanted with mouse 4T1 cells assessed as spleen weight at 100 umol/kg, ip administered five times weekly measured at 29 day post cell innoculum (reference value: 0.603 +/- 0.133 g); type: organism-based; details: in vivo, 696 h
[10] = test system: Mus musculus; experiment: Toxicity in BALB/c mdb mouse implanted with mouse 4T1 cells assessed as WBC level at 100 umol/kg, ip administered five times weekly measured at 29 day post cell innoculum (reference value: 212.3 +/- 82.8 10^3/uL); type: organism-based; details: in vivo, 696 h
[11] = test system: Mus musculus; experiment: Toxicity in BALB/c mdb mouse implanted with mouse 4T1 cells assessed as serum PLT level at 100 umol/kg, ip administered five times weekly measured at 29 day post cell innoculum (reference value: 972 +/- 157 10^3/uL); type: organism-based; details: in vivo, 696 h

## O=P(CCCCCCN=C=S)(Oc1ccccc1)Oc1ccccc1
[1]
  Activity: Toxic
[2]
  Ratio IC50: 10
[3]
  IC50: 2.9 µM
[4]
  IC50: 11.2 µM
[5]
  Activity: Active
[6]
  Activity: 67%
[7]
  Activity: inactive
[8]
  Activity: <= 10%
[9]
  Activity: 0.632 g
[10]
  Activity: 375.9 ×10³ /uL
[11]
  Activity: 855 ×10³ /uL
